Experimental data published in patent publication US20100298251A1, “WOUND-HEALING AGENT CONTAINING MOMORDICAE SEMEN EXTRACT” (priority 2007, published 2010).
Several values for one entry are separate records, joined by “and”; a condition that tells them apart may be missing. Equal entries are not always repeated.

Test system: wounded mouse skin
Experiment: Wound-healing effect in wounded skin mouse model (topical, once daily for 10 days)
Type: in vivo
[1] = group mean (X, 5 mice), topical x10, dose/mouse: extract 50 μg, fraction 3 10 μg, saponin I 5 μg, CGS-21680 10 μg
[2] = group mean (X, 5 mice), topical x10, dose/mouse: extract 50 μg, fraction 3 10 μg, saponin I 5 μg, CGS-21680 10 μg, * P<0.05 vs vehicle
[3] = individual mouse (N 1-5), same doses as group means

Procedure: Thus prepared test materials(20 μl) were topically applied on the wounded mouse skin, once daily for 10 consecutive days.
As a positive control drug, CGS-21680 (Tocris, USA) was prepared same as the above, and topically administered at a dosage of 10 μg/20 μl, once daily for 10 consecutive days.
Twenty-five male mice of CD-1 origin having 24 g±2 g of body weight were divided into 5 groups. The mice were put into separate cages. After anesthesia with hexobarbital (90 mg/kg, IP), the furs on the shoulders and the backs of the mice were shaved. A portion of skin including a muscle layer beneath the skin and a tissue attached thereof was cut off by using a sharp punch (ID12 mm). After being wounded on the skin, the mice were administered topically with the test materials of Momordicae semen extract, Momordica saponin I fraction 3, Momordica saponin I, and CGS-21680 were, respectively, at a concentration of 50, 10, 5, and 10 μg/20 μl, respectively, once daily for 10 consecutive days.
The area of wounded skin detected on a transparent plastic sheet was measured using Image-ProPlus (Media Cybernetics, Version 4.5.0.29) on day 1, 3, 5, 7, 9, and 11. […] The Dunnett's test was performed after one-way analysis of variance (one-way ANOVA), in order for the comparison between the treated group and the vehicle group at each measuring point. The difference was of statistical significance at P<0.05.

CCNC(=O)[C@H]1O[C@@H](n2cnc3c(N)nc(NCCc4ccc(CCC(=O)O)cc4)nc32)[C@H](O)[C@@H]1O [CGS-21680, reference compound]
Wound Closure Rate (%) Day 1 [1]: 0.0%
Wound Closure Rate (%) Day 3 [2]: *45.1%
Wound Closure Rate (%) Day 5 [2]: *58.5%
Wound Closure Rate (%) Day 7 [2]: *68.5%
Wound Closure Rate (%) Day 9 [2]: *79.0%
Wound Closure Rate (%) Day 11 [2]: *83.1%
CT50 (time required for wound closure) [2]: *5.2 Days
Wound Closure Rate (%) Day 1 [3]: 0.0%
Wound Closure Rate (%) Day 3 [3]: 46.7% (2×) and 36.0% and 54.4% and 41.6%
Wound Closure Rate (%) Day 5 [3]: 62.5% and 59.3% and 55.5% and 59.6% and 55.8%
Wound Closure Rate (%) Day 7 [3]: 71.2% and 66.5% and 62.7% and 71.8% and 70.3%
Wound Closure Rate (%) Day 9 [3]: 79.9% and 74.7% and 79.7% and 81.6% and 79.2%
Wound Closure Rate (%) Day 11 [3]: 85.6% and 84.6% and 78.3% and 82.9% and 84.3%
CT50 (time required for wound closure) [3]: 5.0 days and 5.6 days and 5.2 days and 5.1 days and 5.3 days

CC1OC(OC2C(O)C(C(=O)O)OC(OC3CCC4(C)C(CCC5(C)C4CC=C4C6CC(C)(C)CCC6(C(=O)OC6OC(C)C(O)C(O)C6OC6OC(C)C(OC7OCC(O)C(O)C7O)C(OC7OC(CO)C(O)C(OC8OCC(O)C(O)C8O)C7O)C6O)CCC45C)C3(C)C=O)C2OC2OC(CO)C(O)C(O)C2O)C(O)C(O)C1O [Momordica Saponin I, 3-O-beta-D-Galactopyranosyl (1->2)-[alpha-L-rhamnopyranosyl (1->3)]-beta-D-glucuronopyranosido-28-O-beta-D-xylopyranosyl (1->3)-beta-D-glucopyranosyl (1->3)-[beta-D-xylopyranosyl (1->4)]-alpha-L-rhamnopyranosyl (1->2)-beta-D-fucopyranosyl gypsogenin]
Wound Closure Rate (%) Day 1 [1]: 0.0%
Wound Closure Rate (%) Day 3 [2]: *40.1%
Wound Closure Rate (%) Day 5 [2]: *53.0%
Wound Closure Rate (%) Day 7 [2]: *66.1%
Wound Closure Rate (%) Day 9 [2]: *77.3%
Wound Closure Rate (%) Day 11 [2]: *83.4%
CT50 (time required for wound closure) [2]: *5.6 Days
Wound Closure Rate (%) Day 1 [3]: 0.0%
Wound Closure Rate (%) Day 3 [3]: 32.9% and 45.4% (2×) and 31.2% and 45.6%
Wound Closure Rate (%) Day 5 [3]: 54.4% and 54.8% and 48.8% and 51.4% and 55.5%
Wound Closure Rate (%) Day 7 [3]: 69.9% and 71.5% and 58.8% and 62.9% and 67.5%
Wound Closure Rate (%) Day 9 [3]: 80.8% and 80.4% and 69.4% and 75.6% and 80.5%
Wound Closure Rate (%) Day 11 [3]: 85.0% and 88.3% and 78.1% and 84.6% and 81.1%
CT50 (time required for wound closure) [3]: 5.5 days and 5.2 days and 6.3 days and 5.6 days and 5.3 days
wound-healing effect (overall statement on Table 2 and FIG. 1): superior wound-healing effects
